One assay addresses PI4KIIIβ (Homo sapiens, UniProt Q9UBF8). Put plainly: Residence Time Assay (Caliper conditioning assay and jump dilution). It counts as biochemical. Conditions: jump dilution, 2 mM ATP, 1 μM Bodipy-PI. How it is done:
Caliper Conditioning Assay
Compound dilutions were prepared in 100% DMSO using a 1 in 3 serial step dilution and a top concentration of 1 mM. A 200 nL stamp from a 12-point titration was transferred to a black 384-well Greiner assay plate ensuring a final DMSO concentration of 1% across the plate and a top final concentration of inhibitor of 10 μM in 20 μL final assay volume. To a well of a 384-well assay plate 10 μL of 2× Enzyme buffer was pre-incubated with compound for 1 h. Buffer without enzyme was used as 100%-inh control. 10 μL of 2× substrate solution was added to initiate the assay such that the final concentrations were 2 mM ATP and 1 μM Bodipy-PI and the plate was incubated at 25° C. for 3 hours. The enzymatic reaction was terminated by adding 40 μL of stop buffer and Substrate (PI) and product (PIP) present in each sample were separated electrophoretically using a LabChip 3000 capillary electrophoresis instrument CALIPER LABCHIP 3000 Drug Discovery System and detected using blue laser (480 nm) for excitation and green CCD (520 nm) for detection (CCD2). Negative control samples (0%-inhibition in the absence of inhibitor) and positive control samples (100%-inhibition, in the absence of enzyme) were assembled in replicates of 48 (4 replicates per caliper sipper) and were used to calculate %-inhibition values in each test well. Percent inhibition (Pinh) was determined using following equation: Pinh=(PSRO %−PSRinh)/(PSRO %−PSR100%)×100
Where PSRinh is the product sum ratio in the presence of inhibitor, PSRO % is the average product sum ratio in the absence of inhibitor and PSR100% is the average product sum ratio in 100%-inhibition control samples; the IC50 values of inhibitors are determined by fitting the inhibition curves (Pinh versus inhibitor concentration) to the 4 parameter sigmoid dose-response model using XLfit 4 software (IBDS).
In a small Eppendorf tube, 5 μL of 2× enzyme solution (0.4 μM-0.8 μM) was mixed with 5 μL 2× compound solution containing 40 to 120-fold the IC50 value determined at 2 mM ATP as described above, and incubated for 1 h at room temperature. The assay was initiated by rapidly mixing 2 μL of the enzyme preincubation mixture with 800 μL substrate mix containing 2 mM ATP and 1 μM Bodipy-PI. 60 μL of each sample was transferred into low volume Greiner 384-well plate, and the Substrate (PI) and product (PIP) present in each sample were separated electrophoretically using a LabChip 3000 capillary electrophoresis instrument CALIPER LABCHIP 3000 Drug Discovery System and detected using blue laser (480 nm) for excitation and green CCD (520 nm) for detection (CCD2) for approximately 8 h (200 measurements from each well). […]

Assay [1] has as its target T1, human PI4KIII-beta 13-828 (D316-330) (Homo sapiens, UniProt Q9UBF8).
T1 construct: human PI4KIII-beta 13-828 (D316-330)
In words: PI4 KB Activity Assay (ADP-GLO Kinase assay). It is filed as biochemical. To be noted: 1 mM ATP, 60 μM phosphatidylinositol, 3 hours at room temperature; read-out: mean pIC50 (converted). Summed up: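 Human PI4KIII-beta 13-828 (Δ316-330), 1.5 nM, with 1 mM ATP and 60 μM phosphatidylinositol in Hepes pH 7.5/MgCl2 buffer, 11-point titration (top 10 μM, 1% DMSO), 3 h at room temperature. ADP measured by ADP-Glo luminescence; IC50 by four-parameter fit against no-compound and no-enzyme controls.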
(In ADP-Glo the light output rises with the ADP produced.)

Where “and” joins values, the source holds several entries; their conditions need not be identical. Identical values can stand only once.

T1 sequence (Q9UBF8 1-801 isoform Q9UBF8-2): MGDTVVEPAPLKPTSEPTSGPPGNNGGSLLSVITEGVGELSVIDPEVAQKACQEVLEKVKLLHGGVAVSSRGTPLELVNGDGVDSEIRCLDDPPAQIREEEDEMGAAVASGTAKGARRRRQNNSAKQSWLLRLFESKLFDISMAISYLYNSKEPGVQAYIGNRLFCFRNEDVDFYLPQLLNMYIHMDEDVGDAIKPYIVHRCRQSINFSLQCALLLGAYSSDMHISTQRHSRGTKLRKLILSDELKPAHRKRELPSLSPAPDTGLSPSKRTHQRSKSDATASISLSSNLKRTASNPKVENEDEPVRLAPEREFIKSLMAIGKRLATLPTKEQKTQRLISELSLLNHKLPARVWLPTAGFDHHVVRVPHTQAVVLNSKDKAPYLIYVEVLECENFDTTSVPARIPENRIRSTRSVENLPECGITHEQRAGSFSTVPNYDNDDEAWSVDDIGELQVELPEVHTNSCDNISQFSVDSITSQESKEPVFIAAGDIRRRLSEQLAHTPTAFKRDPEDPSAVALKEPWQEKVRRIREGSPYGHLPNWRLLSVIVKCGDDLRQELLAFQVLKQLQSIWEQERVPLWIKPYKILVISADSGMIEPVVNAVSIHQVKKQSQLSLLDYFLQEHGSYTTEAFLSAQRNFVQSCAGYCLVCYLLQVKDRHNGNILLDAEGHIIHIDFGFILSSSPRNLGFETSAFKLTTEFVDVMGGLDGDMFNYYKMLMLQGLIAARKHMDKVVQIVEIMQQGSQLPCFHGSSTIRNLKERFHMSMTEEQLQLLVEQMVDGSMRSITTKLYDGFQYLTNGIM
Chain of PI4KIIIβ (Q9UBF8 whole entry): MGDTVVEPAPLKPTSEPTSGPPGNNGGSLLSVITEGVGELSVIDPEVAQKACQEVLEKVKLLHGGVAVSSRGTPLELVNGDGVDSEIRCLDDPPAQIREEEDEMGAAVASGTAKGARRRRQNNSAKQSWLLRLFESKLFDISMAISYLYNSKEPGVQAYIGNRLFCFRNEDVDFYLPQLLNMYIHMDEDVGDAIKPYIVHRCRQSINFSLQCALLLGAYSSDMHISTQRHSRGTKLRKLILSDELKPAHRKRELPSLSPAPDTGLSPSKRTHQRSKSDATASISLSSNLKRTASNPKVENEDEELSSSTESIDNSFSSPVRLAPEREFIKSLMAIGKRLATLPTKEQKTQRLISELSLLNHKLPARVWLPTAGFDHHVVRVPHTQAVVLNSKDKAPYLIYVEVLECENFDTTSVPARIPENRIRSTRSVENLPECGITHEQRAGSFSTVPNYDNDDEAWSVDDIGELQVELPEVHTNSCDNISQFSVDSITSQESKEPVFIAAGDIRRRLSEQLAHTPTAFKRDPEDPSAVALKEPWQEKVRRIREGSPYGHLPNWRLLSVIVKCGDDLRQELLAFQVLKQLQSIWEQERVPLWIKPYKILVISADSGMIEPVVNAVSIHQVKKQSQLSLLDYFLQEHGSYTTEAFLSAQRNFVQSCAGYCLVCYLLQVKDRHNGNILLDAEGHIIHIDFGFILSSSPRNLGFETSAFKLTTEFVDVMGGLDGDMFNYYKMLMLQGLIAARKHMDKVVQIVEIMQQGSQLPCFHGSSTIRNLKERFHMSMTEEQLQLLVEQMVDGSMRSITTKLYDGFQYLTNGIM

Compound `Cc1ccc(-c2c(C)nn3c(NCc4cccc(-c5nccn5C)c4)cc(C(C)(C)O)nc23)cc1C(=O)N(C)CCCO` [Compound 17, 5-(5-(2-Hydroxypropan-2-yl)-2-methyl-7-((3-(1-methyl-1H-imidazol-2-yl)benzyl)amino)pyrazolo[1,5-a]pyrimidin-3-yl)-N-(3-hydroxypropyl)-N,2-dimethylbenzamide] returned a residence time at PI4KIIIβ of 542 min. Further, the IC50 in assay [1] was 2.51 nM and ≤ 3.98 nM.
The compound `CCN(CCO)C(=O)c1cc(-c2c(C)nn3c(NCc4cccc(-c5nccn5C)c4)cc(C(C)(C)O)nc23)ccc1OC` [Compound 19, N-ethyl-N-(2-hydroxyethyl)-5-(5-(2-hydroxypropan-2-yl)-2-methyl-7-((3-(1-methyl-1H-imidazol-2-yl)benzyl)amino)pyrazolo[1,5-a]pyrimidin-3-yl)-2-methoxybenzamide] registered a residence time at PI4KIIIβ of 997 min. In addition, the IC50 in assay [1] was 2.51 nM and ≤ 3.98 nM.
`COc1ccc(-c2c(C)nn3c(NCc4cccc(-c5nccn5C)c4)cc(C(C)(C)O)nc23)cc1C(=O)N(C)C1CCOCC1` [Compound 21, 5-(5-(2-Hydroxypropan-2-yl)-2-methyl-7-((3-(1-methyl-1H-imidazol-2-yl)benzyl)amino)pyrazolo[1,5-a]pyrimidin-3-yl)-2-methoxy-N-methyl-N-(tetrahydro-2H-pyran-4-yl)benzamide] yielded a residence time at PI4KIIIβ of 528 min. The IC50 in assay [1] is 6.31 nM.
For `Cc1ccc(-c2c(C)nn3c(NCc4cccc(-c5nccn5C)c4)cc(C(C)(C)O)nc23)cc1C(=O)N(C)[C@@H](C)CO` [Compound 22, (S)—N-(1-hydroxypropan-2-yl)-5-(5-(2-hydroxypropan-2-yl)-2-methyl-7-((3-(1-methyl-1H-imidazol-2-yl)benzyl)amino)pyrazolo[1,5-a]pyrimidin-3-yl)-N,2-dimethylbenzamide], the residence time on PI4KIIIβ was determined as 1670 min. Also, in assay [1], the IC50 was 3.16 nM and ≤ 3.98 nM.

Values taken from patent US11649238B2, “Substituted pyrazolo[1,5-a]pyrimidines as PI4K inhibitors” (GLAXOSMITHKLINE INTELLECTUAL PROPERTY DEVELOPMENT LIMITED, priority 2018, dated 2023).
